Laboratory results published in patent US6498145B1, “Use of purified SDG as a hypotensive (vasodilator) agent” (University of Saskatchewan Technologies Incorporated, priority 2000, dated 2002).

Assays:
Assay type in all cases: in vivo, rat
[1] = tested on: anesthetized spontaneous hypertensive rats (SHR); assay: Blood pressure of anesthetized spontaneous hypertensive rats, SDG intraperitoneally; conditions: for maximum fall in the blood pressure: 30 minutes; for percent decrease in blood pressures: end of four hours
Experimental: (§1) The effects of SDG on the arterial pressure of anesthetized spontaneous hypertensive rats (SHR) were investigated to determine (a) if it is effective in lowering blood pressure to the same extent as in normotensive Sprague-Dawley rats; (b) if it is effective when given by intraperitoneal route; (c) if the effect is dose-dependent.
(ii) Effects of SDG in the doses of 5 mg, 10 mg, 50 mg and 200 mg/kg given intraperitoneally were investigated on blood pressure of anesthetized SHR for four hours. The maximum fall in the blood pressure were approximately 7, 37, 50 and 48% respectively with 5 mg, 10 mg, 50 mg and 200 mg of SDG at 30 minutes. At the end of four hours of SDG administration the percent decreases in blood pressures were 31, 42, 39 and 37 respectively with these four doses of SDG.

[2] = tested on: anesthetized normotensive rats; assay: Hypotensive effect of SDG after premedication with blockers/inhibitors in anesthetized normotensive rats
Experimental: FIG. 5 is a graph showing changes in the mean arterial blood pressure (B.P.) with SDG (20 mg/kg, intravenously) in the absence or presence of methylene blue (MB) (0.5 mg/kg); methylene blue was given 15 minutes prior to administration of SDG and results are expressed as mean±S.E. *p<0.05, comparison of values at various times with respect to “0” time.
FIG. 9 is a graph showing effects of SDG in the absence or presence of pyrilamine on the mean arterial blood pressure (B.P.) in anesthetized normotensive rats. Pyrilamine was given 15 minutes before administration of SDG. The results are expressed as mean±S.E. *p<0.05, comparison of values at various times with respect to “0” time.
Heart rate was not affected by methylene blue (FIG. 8).

[3] = tested on: anesthetized spontaneous hypertensive rats; assay: Blood pressure of anesthetized spontaneous hypertensive rats, SDG orally; conditions: SHR, 100 mg/kg orally
Experimental: (iii) Effects of SDG (100 mg/kg body wt.) given orally were investigated on the blood pressure of anesthetized spontaneous hypertensive rats for four hours. The blood pressures began falling at 15 minutes of SDG administration and maximum fall occurred after three hours. The decreases were of similar magnitude for systolic, diastolic and mean arterial pressures. The systolic, diastolic and mean arterial pressures respectively were 243 mmHg, 176 mmHg and 198 mmHg before administration of SDG. SDG reduced the blood pressure by approximately 25%.

[4] = tested on: anesthetized normotensive rats; assay: Blood pressure and heart rate of anesthetized normotensive rats, SDG intravenously; conditions: for maximum fall in mean B.P.: 15 minutes after administration
Experimental: The effects of SDG in the doses of 10 mg, 15 mg, 20 mg and 30 mg/kg given intravenously were investigated on the blood pressure (B.P.) and heart rate of anesthetized normotensive rats. The number of rats used were 8, 3, 9, and 3 respectively for the doses of SDG (10 mg, 15 mg, 20 mg and 30 mg/kg body wt.). The maximum fall in mean B.P. were approximately 38%, 29%, 46% and 57% with 10 mg, 15 mg, 20 mg and 30 mg/kg dose of SDG respectively at 15 minutes after administration of SDG. After 15 minutes the blood pressure tended to recover but the recovery was not complete. The mean blood pressure at the end of three hours after SDG administration were approximately 25% lower than control values. The changes in the systolic and diastolic pressure were similar to the mean blood pressure with various doses of SDG. […] One would expect a very long duration of hypotensive effect when SDG is given orally.

[5] = tested on: angiotensin II receptor; assay: Angiotensin II response on arterial pressure before and after SDG; conditions: SDG 10 mg/kg intravenously
Experimental: To determine if the SDG-induced fall in the blood pressure is mediated through the blockade of angiotensin II receptor, experiments were carried out in normotensive Sprague-Dawley rats. Effects of angiotensin II (0.2 μg/kg, I.V.) given before and after 15 minutes, 30 minutes and 60 minutes of SDG (10 mg/kg) administered intravenously were investigated on the arterial pressure of six anesthetized Sprague-Dawley rats. […] The response of angiotensin II on the mean arterial pressure in untreated rats remained unaltered.

[6] = tested on: anesthetized spontaneous hypertensive rats (SHR); assay: Blood pressure of anesthetized spontaneous hypertensive rats, SDG intravenously
Experimental: as §1
(i) Effects of SDG in the doses of 1 mg, 3 mg and 15 mg/kg given intravenously were investigated on the blood pressures of anesthetized spontaneous hypertensive rats (SHR). The maximum fall in the blood pressure occurred between 15 to 30 minutes of SDG administration after which the blood pressure tended to recover. However, the recovery was short lived. The percent decreases in blood pressures at 30 minutes after SDG were 19, 25 and 31 respectively with 1 mg, 3 mg and 15 mg/kg of SDG. At the end of 4 hours of SDG treatment, the percent decreases were 34, 43 and 36 respectively with 1 mg, 3 mg and 15 mg dose. The fall in the blood pressure initially (at 15 minutes) was maximum with high dose of SDG.

[7] = tested on: angiotensin converting enzyme (ACE); assay: Angiotensin I-induced rise in blood pressure before and after SDG; conditions: SDG 10 mg/kg intravenously
Experimental: Further experiments were conducted to determine if the SDG-induced fall in the blood pressure is mediated through inhibition of angiotensin converting enzyme (ACE). Angiotensin I is converted to angiotensin II which is vasoconstrictor and raises blood pressure. If SDG lowers blood pressure by inhibiting ACE, then SDG would reduce/prevent the angiotensin I-induced rise in the blood pressure. Experiments were conducted in six normotensive Sprague-Dawley rats. […] However, the effects of angiotensin on arterial pressure of untreated rats remained unaltered. SDG (10 mg/kg) produced a marked fall in the mean arterial pressure.

[8] = normotensive Sprague-Dawley rats

COc1cc(C[C@@H](CO[C@@H]2O[C@H](CO)[C@@H](O)[C@H](O)[C@H]2O)[C@H](CO[C@@H]2O[C@H](CO)[C@@H](O)[C@H](O)[C@H]2O)Cc2ccc(O)c(OC)c2)ccc1O [SDG, secoisolariciresinol diglucoside]
maximum fall in the blood pressure ([1]; 5 mg/kg intraperitoneally): approximately 7% | percent decrease in blood pressures ([1]; 5 mg/kg intraperitoneally): 31% | maximum fall in the blood pressure ([1]; 10 mg/kg intraperitoneally): ~37% | percent decrease in blood pressures ([1]; 10 mg/kg intraperitoneally): 42% | maximum fall in the blood pressure ([1]; 50 mg/kg intraperitoneally): ~50% | percent decrease in blood pressures ([1]; 50 mg/kg intraperitoneally): 39% | maximum fall in the blood pressure ([1]; 200 mg/kg intraperitoneally): ~48% | percent decrease in blood pressures ([1]; 200 mg/kg intraperitoneally): 37% | hypotensive effect of SDG after premedication with NG-monomethyl-L-arginine ([2]; NG-monomethyl-L-arginine (inhibitor of nitric oxide synthase)): not prevented | hypotensive effect of SDG in presence of methylene blue ([2]; SDG 20 mg/kg intravenously, methylene blue 0.5 mg/kg 15 minutes prior): completely prevented | heart rate in presence of pyrilamine ([2]; SDG with pyrilamine): practically unchanged | hypotensive effect of SDG after premedication with atropine ([2]; atropine (acetylcholine receptor blocker)): not prevented | hypotensive effect of SDG after premedication with indomethacin ([2]; indomethacin (inhibitor of cyclooxygenase)): not prevented | hypotensive effect of SDG in presence of pyrilamine ([2]; pyrilamine (histamine receptor blocker) 15 minutes before SDG): partly prevented | time at which blood pressures began falling [3]: 15 min | reduction of blood pressure ([3]; observed for four hours, systolic, diastolic and mean similar): approximately 25% | maximum fall in mean B.P. ([4]; 10 mg/kg intravenously, normotensive rats): approximately 38% | maximum fall in mean B.P. ([4]; 15 mg/kg intravenously, normotensive rats): ~29% | maximum fall in mean B.P. ([4]; 20 mg/kg intravenously, normotensive rats): ~46% | maximum fall in mean B.P. ([4]; 30 mg/kg intravenously, normotensive rats): ~57% | heart rate ([4]; any dose (10-30 mg/kg intravenously), normotensive rats): not significantly altered | mean blood pressure lower than control values ([4]; end of three hours after SDG administration, 10-30 mg/kg intravenously): approximately 25% | mean arterial pressure [5, 8]: reduced the mean arterial pressure | angiotensin II response on arterial pressure ([5]; angiotensin II 0.2 μg/kg I.V., 15, 30, 60 minutes): moderately reduced | percent decrease in blood pressures ([6]; 1 mg/kg intravenously, 30 minutes after SDG): 19% | percent decrease in blood pressures ([6]; 1 mg/kg intravenously, end of 4 hours): 34% | percent decrease in blood pressures ([6]; 3 mg/kg intravenously, 30 minutes after SDG): 25% | percent decrease in blood pressures ([6]; 3 mg/kg intravenously, end of 4 hours): 43% | percent decrease in blood pressures ([6]; 15 mg/kg intravenously, 30 minutes after SDG): 31% | percent decrease in blood pressures ([6]; 15 mg/kg intravenously, end of 4 hours): 36% | time of maximum fall in the blood pressure ([6]; 1-15 mg/kg intravenously): 15 to 30 min | mean arterial pressure [7, 8]: marked fall | response of angiotensin I on the mean arterial pressure ([7]; angiotensin I 0.2 μg/kg intravenously, Sprague-Dawley rats, 60 minutes): marked reduction
